Results from US20190307770A1, “METHODS FOR TREATING OR PREVENTING CANCER IN A KRAS-VARIANT PATIENT AND FOR […] OF […] PRIMARY BREAST TUMORS” (MIRADX, priority 2014, published 2019).

Columns and labels:
[1] = post-menopausal use of estrogen alone, median follow up 11.8 years; CI 0.62-0.95, p 0.02; cited from earlier work
[2] = tested on: MCF10A KRAS-variant+/- (MT) cell lines; test: Anchorage independent growth (soft agar colony formation) as measure of transformation; assay type: cell-based, human; conditions: for level of transformation in anchorage independent growth assay: KRAS-variant (L1 and L2) versus parental (WT) MCF10A lines, comparison of anti-estrogen treatments and estrogen; for fold increased colony formation rate: KRAS-variant MCF10A lines, grown without EGF
Experimental: Anchorage independent growth was assessed as described previously (Sweasy et al. (2005) PNAS 102:14350-5). After thawing and growing cells until confluence in EGF supplemented media (20 ng/ml), cells were plated into conditions of study for two passages. For estrogen depletion experiments phenol red free DMEM/F12 medium (Invitrogen) and 5% charcoal-stripped horse serum (Thermo Fisher) were used, and Tamoxifen or estrogen was added to a final concentration of 1 μM after the first passage, as appropriate. To plate, 100 μl of MCF10A (WT) or (MT) cells at a density of 400,000 cells/ml were mixed with 2 ml of media for the condition under study containing 2 ml 0.7% noble agar (USB). 1 ml of the cell mixture was added to 1 ml of 1.0% noble agar in a well of a 6-well dish. Cells were fed twice weekly by layering on a 50:50 mixture of media with 0.7% agar for 2 weeks, followed by only media for two-three additional weeks. The number of colonies present in each of ten microscope fields per well from a total of 3 wells per experiment was counted to evaluate transformation and is reported as an average of the 2 separate MT lines.
Next, WT and MT lines were plated in soft agar to test for transformation, as measured by anchorage independent growth. […] The impact of estrogen withdrawal on this transformation was next evaluated by the use of charcoal stripped serum, tamoxifen, or a combination of the two. […] These findings biologically confirm wide spread transformation in normal breast epithelium with acute estrogen withdrawal in breast cells with the KRAS-variant.
Next, different forms of estrogen inhibitors were tested to determine their effects on transformation in the presence of the KRAS-variant. Tamoxifen (ER antagonist in breast), anastrozole (aromatase inhibitor, inhibiting estrogen synthesis), and fulvestrant (a complete ER antagonist) were administered to parental (WT) or two KRAS-variant (L1 and L2) MCF10A cell lines and anchorage independent growth was assessed using the colony formation assay described above.

For estrogen, the “breast cancer incidence versus placebo, HR” value [1] is given as 0.77, the “level of transformation in anchorage independent growth assay” value (“level of transformation” below) ([2]; FIG. 5) is given as “prevented transformation” and the “level of transformation” value ([2]; FIG. 5, listed as Estrogen) is given as “prevents transformation”. The “transformation (colony formation) after return of estrogen to charcoal-stripped media” value ([2]; KRAS-variant MT cell lines, charcoal-stripped media, estrogen 1 μM, p=0.018, FIG. 4) was “decreased transformation”.

In the case of `CC/C(=C(\c1ccccc1)c1ccc(OCCN(C)C)cc1)c1ccccc1` [Tamoxifen], the “colonies formed relative to the anastrozole or fulvestrant treatments” value ([2]; KRAS-variant (L1 and L2) MCF10A lines, FIG. 5) was roughly 10 times, the “level of transformation” value ([2]; FIG. 5) was “highest level of transformation” and the “fold increased colony formation rate” value ([2]; Tamoxifen combined with charcoal stripped media) was 7.9 fold. For the same compound, the “fold increased colony formation rate” value ([2]; in the presence of Tamoxifen (1 μM final)) was 2 fold.
